We go through one compound from publication PMC10489644, “In Vitro Evaluation of the Potential for Drug Interactions by Salidroside” (Nutrients, 2023).

Data set [1] deals with CYP3A4. Conditions: human, 48 h.
The next data set addresses T1, OATP1B3 (Homo sapiens, UniProt Q9NPD5).
T1 sequence (Q9NPD5 1-702): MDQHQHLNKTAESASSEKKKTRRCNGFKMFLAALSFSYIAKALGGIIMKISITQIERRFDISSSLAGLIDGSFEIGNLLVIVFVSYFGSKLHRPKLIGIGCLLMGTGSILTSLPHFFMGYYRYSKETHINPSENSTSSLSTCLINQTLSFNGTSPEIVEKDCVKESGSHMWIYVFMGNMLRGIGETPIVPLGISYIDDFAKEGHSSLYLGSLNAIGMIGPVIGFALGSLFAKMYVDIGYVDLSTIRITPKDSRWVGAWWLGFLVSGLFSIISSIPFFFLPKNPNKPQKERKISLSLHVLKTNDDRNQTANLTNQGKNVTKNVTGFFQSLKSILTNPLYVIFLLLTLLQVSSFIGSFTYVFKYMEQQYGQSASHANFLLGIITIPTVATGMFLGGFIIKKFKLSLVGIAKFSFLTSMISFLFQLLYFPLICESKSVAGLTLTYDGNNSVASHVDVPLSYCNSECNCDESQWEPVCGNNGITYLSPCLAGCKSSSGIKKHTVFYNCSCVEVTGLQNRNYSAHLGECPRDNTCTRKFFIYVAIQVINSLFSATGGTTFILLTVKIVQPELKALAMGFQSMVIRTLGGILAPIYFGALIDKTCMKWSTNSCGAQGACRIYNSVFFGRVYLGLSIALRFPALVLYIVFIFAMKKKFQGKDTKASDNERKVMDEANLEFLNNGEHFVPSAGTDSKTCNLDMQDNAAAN
Briefly: Uptake transport inhibition in HEK293-OATP1B3 cells. The method, then: HEK293-OATP1B1 and OATP1B3 cells were diluted to 1 × 10^6 cells/mL with DMEM supplemented with 1% non-essential amino acid (NEAA), 10% fetal bovine serum (FBS), 1% PS solution (100 U/mL penicillin-G and 100 μg/mL streptomycin), and seeded on a 96-well BioCoat™ poly-d-lysine plate at a density of 1 × 10^6 cells/mL. […] Once the cells were anchored on the plate, the cell culture was replaced with DMEM containing 10% FBS and 1% PS solution (100 U/mL penicillin-G and 100 μg/mL streptomycin solution) and cultured one day for the uptake and inhibition studies. The cell culture medium was removed from the 96-well plate, then rinsed twice with 0.1 mL/well of pre-warmed transport buffer. The transporter cells containing pre-incubation solution were pre-incubated at 37 °C for 30 min. Then the pre-incubation solution was removed and replaced with 0.1 mL/well of dosing solution containing a substrate, respectively (blank transporter buffer containing a substrate, transport buffer containing a substrate and PC, and transport buffer containing a substrate and salidroside). Then, the transporter cells were incubated at 37 °C for 2 min. After incubation, all solutions in the cells were discarded and rinsed with 0.10 mL/well of ice-cold transport buffer (4 °C) three times. […] All samples were shaken and centrifuged at 4000 rpm at 4 °C for 15 min and the supernatant was removed for future analysis by LC-MS/MS.
Enzyme activity (%) = PAR with compound/PAR vehicle × 100.

The target of a further data set is T2, CYP1A2 (Homo sapiens, UniProt P05177).
T2 construct: Mixed human liver microsomes were purchased from BioreclamationIVT; tissue BioreclamationIVT; host or cells: mixed-donor pool of human liver microsomes (Lot ZZQ)
T2 sequence (P05177 1-516): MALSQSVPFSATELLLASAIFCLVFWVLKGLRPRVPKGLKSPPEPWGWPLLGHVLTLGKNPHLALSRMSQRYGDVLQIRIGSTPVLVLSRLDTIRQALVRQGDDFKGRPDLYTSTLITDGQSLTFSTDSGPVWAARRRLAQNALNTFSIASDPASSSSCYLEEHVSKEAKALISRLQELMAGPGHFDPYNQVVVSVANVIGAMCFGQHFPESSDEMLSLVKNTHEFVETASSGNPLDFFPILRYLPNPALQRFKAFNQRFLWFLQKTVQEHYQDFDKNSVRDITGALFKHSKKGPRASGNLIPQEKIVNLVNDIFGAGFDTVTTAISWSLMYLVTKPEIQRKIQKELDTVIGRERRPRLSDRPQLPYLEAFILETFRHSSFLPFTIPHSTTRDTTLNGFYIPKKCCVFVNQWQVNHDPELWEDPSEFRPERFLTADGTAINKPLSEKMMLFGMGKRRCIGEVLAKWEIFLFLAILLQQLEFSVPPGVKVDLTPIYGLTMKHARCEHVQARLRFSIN
Description: CYP direct inhibition in human liver microsomes. Particulars: probe phenacetin, mean of N = 2. It counts as in vitro ADME. Background: Liver microsomes are vesicles of endoplasmic reticulum, rich in cytochrome P450 enzymes.

The test system of data set [2] is CYP3A4. Description: in vitro. Particulars: human, Mean Fold Induction.
Data set [3] concerns CYP3A4. Conditions: for % of Positive Control / Mean Fold Induction: human, 48 h.
The next data set has as its target CYP2C9 (Homo sapiens, UniProt P11712). Briefly: CYP direct inhibition in human liver microsomes.
A short description of data set [4]: Rat pharmacokinetics after IV or oral dosing. It counts as in vivo, Male Sprague–Dawley rats. Particulars: fa = fb/((1 − CL/Qh) × 100%). The procedure: An estimation of the maximum plasma concentration of salidroside in humans was made from the pharmacokinetics in rats after oral dosing and the recommended human daily dose of salidroside of 60 mg (two 30 mg capsules). Male Sprague–Dawley rats were dosed either with IV or orally at 12 mg/kg (N = 6/group). Salidroside was moderately cleared (21 mL/min/kg) and well absorbed orally.

Another data set deals with CYP2C19 (Homo sapiens, UniProt P33261). Briefly: CYP direct inhibition in human liver microsomes.
Sequence of CYP2C19 (P33261 whole entry): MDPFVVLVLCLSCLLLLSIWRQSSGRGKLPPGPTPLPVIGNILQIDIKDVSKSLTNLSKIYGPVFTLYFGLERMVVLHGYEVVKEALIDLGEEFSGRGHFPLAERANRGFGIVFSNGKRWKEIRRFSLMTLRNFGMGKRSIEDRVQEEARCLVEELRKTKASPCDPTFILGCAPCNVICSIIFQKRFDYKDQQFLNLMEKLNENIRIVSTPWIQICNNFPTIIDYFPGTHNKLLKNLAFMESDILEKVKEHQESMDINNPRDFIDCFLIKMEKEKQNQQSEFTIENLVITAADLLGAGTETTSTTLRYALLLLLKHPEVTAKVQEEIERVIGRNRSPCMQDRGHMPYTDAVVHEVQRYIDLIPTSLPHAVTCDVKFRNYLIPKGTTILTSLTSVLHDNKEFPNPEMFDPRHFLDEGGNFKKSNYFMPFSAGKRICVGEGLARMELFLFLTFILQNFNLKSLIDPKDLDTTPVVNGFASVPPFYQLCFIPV

Each structure is given as a SMILES string. Entries after “also recorded” stand apart in the source; their conditions may differ. Read-outs that look alike come from different tables or passages of the source.

Sequence of CYP2C9 (P11712 whole entry): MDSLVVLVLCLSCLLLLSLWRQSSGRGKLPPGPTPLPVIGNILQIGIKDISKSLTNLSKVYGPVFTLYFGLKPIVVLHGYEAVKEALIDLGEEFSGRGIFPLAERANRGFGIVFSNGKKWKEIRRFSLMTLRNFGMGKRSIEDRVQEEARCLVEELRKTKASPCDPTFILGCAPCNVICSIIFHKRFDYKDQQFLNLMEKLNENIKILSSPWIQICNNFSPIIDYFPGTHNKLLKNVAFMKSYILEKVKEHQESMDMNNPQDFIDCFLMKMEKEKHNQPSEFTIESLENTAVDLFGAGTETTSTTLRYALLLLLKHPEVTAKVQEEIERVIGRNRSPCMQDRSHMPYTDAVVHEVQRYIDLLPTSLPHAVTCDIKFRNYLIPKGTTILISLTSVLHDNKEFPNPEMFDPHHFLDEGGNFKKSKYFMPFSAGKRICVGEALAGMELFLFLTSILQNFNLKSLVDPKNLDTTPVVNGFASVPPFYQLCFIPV
Description for CYP2C19: (§1) Test compound/controls working solution or DMSO were added in 238.5 µL of liver microsomes working solution, mixed well by pipetting several times and pre-incubated in a 37 °C shaking water bath for 5 min. Following the pre-incubation, 60 µL of NADPH working solution were added, mixed well by pipetting several times, and incubated in a 37 °C shaking water bath for 10 min. Following the incubation, 300 µL of quenching solution were immediately added and vortexed for ~20 s to mix. All samples were centrifuged at 4000 rpm for 15 min at 4 °C and then the supernatant was transferred for LC-MS/MS analysis. IC50 values were determined by the Hill slope equation using Graph Pad Prism.
(§2) For competitive and time-dependent CYP inhibition, the peak area ratios (PAR) of analyte/internal standard were used to semi-quantitatively determine the concentration of acetaminophen (CYP1A2 activity), 4’-hydroxydiclofenac (CYP2C9), 4’-hydroxymephenytoin (CYP2C19), dextrorphan (CYP2D6), 1’-hydroxymidazolam (CYP3A4), 6β-hydroxytestosterone (CYP3A4), hydroxybupropion (CYP2B6), and N-desethylamodiaquine (CYP2C8), with terfenadine as the internal standard by LC-MS/MS method. The HPLC-MS system utilized an Acquity UPLC system and Sciex API 4000 mass spectrometer in ESI positive mode, with quantitation employing MRM. Samples were injected onto an Atlantis T3 5 μM column (2.1 x 50 mm). […]
Description for CYP2C9: as §1, §2

As usually defined, the IC50 is the point on the concentration scale where inhibition reaches its midpoint. Higher therefore signals lower potency. As usually defined, the fold induction is the ratio of treated to control signal. Consider `OC[C@H]1O[C@@H](OCCc2ccc(O)cc2)[C@H](O)[C@@H](O)[C@@H]1O` [Salidroside], for which the “% Positive Control” value with CYP3A4 [1] (3 µM) and in the data set with CYP3A4 [1] (10 µM) was 0% throughout. Also, the IC50 against OATP1B3 is over 100 µM; against CYP1A2, over 50 µM; against CYP2C9, over 50 µM; against CYP2C19 it was over 50 µM. Further, the “mean control activities (% of control activity) / inhibition of OATP1B3” value on OATP1B3 (100 µM) is listed as “unchanged; also recorded: no inhibition”. Also, the fold induction at 48 h, 1 µM in the data set with CYP3A4 [2] worked out at 0.7. Also, the “Mean Enzyme Activity” value with CYP3A4 [3] (CYP3A4, Lot# SNP, 0.1 µM, N = 3) worked out at 1.82 pmol/10^6 cells/min. In addition, the “% of Positive Control” value in the data set with CYP3A4 [3] (0.1 µM) is recorded as −15%; in the data set on CYP3A4 [3] (1 µM) it was −26%; in the data set with CYP3A4 [3] (10 µM), −14%. For the same compound, the figures for the “Mean Fold Induction” value in the data set on CYP3A4 [3] (0.1 µM), with CYP3A4 [3] (1 µM) and in the data set on CYP3A4 [3] (10 µM) were 2.07 fold, 1.55 fold and 2.13 fold, respectively. In addition, the “estimated oral absorption (fa)” value in data set [4] was 46%.
